The values below come from patent US9073821B2, “Hydroxamic acid derivative” (priority 2010, dated 2015).

Structures are written as SMILES. Some results are limits rather than exact numbers.

The first assay deals with Pseudomonas aeruginosa LpxC enzyme (Pseudomonas aeruginosa (strain ATCC 15692 / DSM 22644 / CIP 104116 / JCM 14847 / LMG 12228 / 1C / PRS 101 / PAO1), UniProt P47205). As to the kind of experiment: biochemical. Format: biochemical. The conditions noted are these: class symbols A/B/C by IC50; Table 3; read-out: Enzyme inhibitory activity (inhibitory activity on Pseudomonas aeruginosa LpxC enzyme). As for the experimental part: Test 1: Evaluation of the Inhibitory Activity on Pseudomonas aeruginosa LpxC Enzyme
An inhibition curve was constructed for each test compound by performing the aforementioned reaction at varying concentrations of the test compound. From this inhibition curve, the concentration of the test compound at which the formation of the reaction product was suppressed by 50% was determined as the IC50 of the test compound, which was an index for the inhibitory activity on Pseudomonas aeruginosa LpxC enzyme.
As to `CNC(=O)[C@@](C)(C(=O)NO)N(C)C(=O)c1ccc(C#Cc2csc(C)n2)cc1` [Compound 586, (2S)-N-hydroxy-N′,2-dimethyl-2-[methyl({4-[(2-methyl-1,3-thiazol-4-yl)ethynyl]phenyl}carbonyl)amino]propanediamide], the IC50 lay within 10 to 100 nM. Turning to `CN(C(=O)c1ccc(C#Cc2ccc(CN3CCCOCC3)cc2)cc1)C(C(=O)NO)C(=O)NCc1ccccn1` (stereo not shown) [Compound 520, N-hydroxy-2-{methyl[(4-{[4-(1,4-oxazepan-4-ylmethyl)phenyl]ethynyl}phenyl)carbonyl]amino}-N′-(pyridin-2-ylmethyl)propanediamide], the IC50 was under 10 nM. Consider `CCOC1CN(Cc2ccc(C#Cc3ccc(C(=O)N(C)C(C(=O)NC)C(=O)NO)cc3)cc2)C1` (stereo not shown) [Compound 535, 2-[{[4-({4-[(3-ethoxyazetidin-1-yl)methyl]phenyl}ethynyl)phenyl]carbonyl}(methyl)amino]-N-hydroxy-N′-methylpropanediamide], for which the IC50 is under 10 nM. As for `CCOC1CN(Cc2ccc(C#Cc3ccc(C(=O)N(C)C(C(=O)NC)C(=O)NO)cc3F)cc2)C1` (stereo not shown) [Compound 581, 2-[{[4-({4-[(3-ethoxyazetidin-1-yl)methyl]phenyl}ethynyl)-3-fluorophenyl]carbonyl}(methyl)amino]-N-hydroxy-N′-methylpropanediamide], the IC50 is under 10 nM.

Staying with this assay, now noted: inhibitory activity on Pseudomonas aeruginosa LpxC enzyme, class symbols A/B/C; read-out: Enzyme inhibitory activity.
Take `CNC(=O)C(C(=O)NO)N(C)C(=O)c1ccc(CCc2ccc(CCN3CCCOCC3)cc2)cc1` (stereo not shown) [Compound 210, N-hydroxy-N′-methyl-2-{methyl[4-(2-{4-[2-(1,4-oxazepan-4-yl)ethyl]phenyl}ethyl)benzoyl]amino}propanediamide]: the IC50 is 10 to 100 nM. Take `CNC(=O)C(C(=O)NO)N(C)C(=O)c1ccc(-c2ccc(N3CCOC3=O)cc2)cc1` (stereo not shown) [Compound 247, N-hydroxy-N′-methyl-2-(methyl {[4′-(2-oxo-1,3-oxazolidin-3-yl)biphenyl-4-yl]carbonyl}amino)propanediamide]: the IC50 lay in the range of 10 to 100 nM.

In the case of `CN(C(=O)c1ccc(-c2ccccc2)cc1)C(C(=O)NO)C(=O)NCCc1ccccc1` (stereo not shown) [Compound 76, 2-[(biphenyl-4-ylcarbonyl)(methyl)amino]-N-hydroxy-N′-(2-phenylethyl)propanediamide], the IC50 was over 100 nM. For `CNC(=O)C(C(=O)NO)N(C)C(=O)c1ccc(-c2ccc(OCCCCOC)cc2)cc1` (stereo not shown) [Compound 215, N-hydroxy-2-[{[4′-(4-methoxybutoxy)biphenyl-4-yl]carbonyl}(methyl)amino]-N′-methylpropanediamide], the IC50 is under 10 nM. Still for that read-out and setting: as for `CNC(=O)C(C(=O)NO)N(C)C(=O)c1ccc(C#Cc2ccc(CNCCC(C)(C)O)cc2)cc1` (stereo not shown) [Compound 323, N-hydroxy-2-[({4-[(4-{[(3-hydroxy-3-methylbutyl)amino]methyl}phenyl)ethynyl]phenyl}carbonyl)(methyl)amino]-N′-methylpropanediamide], the figure is 10 to 100 nM; as for `CN(C(=O)c1ccc(-c2ccccc2)cc1)C(C(=O)NO)C(=O)NCc1ccccn1` (stereo not shown) [Compound 161, 2-[(biphenyl-4-ylcarbonyl)(methyl)amino]-N-hydroxy-N′-(pyridin-2-ylmethyl)propanediamide], 10 to 100 nM.

In the case of `CCNC(=O)C(C(=O)NO)N(C)C(=O)c1ccc(-c2ccccc2)cc1` (stereo not shown) [Compound 242, 2-[(biphenyl-4-ylcarbonyl)(methyl)amino]-N-ethyl-N′-hydroxypropanediamide], the IC50 was in the range of 10 to 100 nM. As to `CNC(=O)C(C(=O)NO)N(C)C(=O)c1ccc(C#Cc2ccc(CN3CCN(C)CC3)cc2)cc1` (stereo not shown) [Compound 304, N-hydroxy-N′-methyl-2-(methyl {[4-({4-[(4-methylpiperazin-1-yl)methyl]phenyl}ethynyl)phenyl]carbonyl}amino)propanediamide], the IC50 is under 10 nM. On the same count and under the same terms, with `CNC(=O)C(C(=O)NO)N(C)C(=O)c1ccc(-c2ccc(OC)c(OC)c2)cc1` (stereo not shown) [Compound 55, 2-{[(3′,4′-dimethoxybiphenyl-4-yl)carbonyl](methyl)amino}-N-hydroxy-N′-methylpropanediamide] the figure was 10 to 100 nM; with `Cn1cc(CNC(=O)C(NC(=O)c2ccc(-c3ccc(OCCO)cc3)cc2)C(=O)NO)cn1` (stereo not shown) [Compound 147, N-hydroxy-2-({[4′-(2-hydroxyethoxy)biphenyl-4-yl]carbonyl}amino)-N′-[(1-methyl-1H-pyrazol-4-yl)methyl]propanediamide], under 10 nM.

For `CNC(=O)C(C(=O)NO)N(C)C(=O)c1ccc(-c2ccc(CNCC(F)F)cc2)cc1` (stereo not shown) [Compound 204, 2-{[(4′-{[(2,2-difluoroethyl)amino]methyl}biphenyl-4-yl)carbonyl](methyl)amino}-N-hydroxy-N′-methylpropanediamide], the IC50 lay in the range of 10 to 100 nM. Still for that read-out and setting: as for `CNC(=O)C(C(=O)NO)N(C)C(=O)c1ccc(-c2ccc(CN(C)OC)cc2)cc1` (stereo not shown) [Compound 259, N-hydroxy-2-{[(4′-{[methoxy(methyl)amino]methyl}biphenyl-4-yl)carbonyl](methyl)amino}-N′-methylpropanediamide], the figure is 10 to 100 nM. For `CNC(=O)C(C(=O)NO)N(C)C(=O)c1ccc(-c2ccc(OCCN(C)c3ccccc3)cc2)cc1` (stereo not shown) [Compound 89, N-hydroxy-N′-methyl-2-{methyl[(4′-{2-[methyl(phenyl)amino]ethoxy}biphenyl-4-yl)carbonyl]amino}propanediamide], the IC50 was under 10 nM. `CCC(F)(F)c1ccc(-c2ccc(C(=O)N(C)C(C(=O)NC)C(=O)NO)cc2)cc1` (stereo not shown) [Compound 251, 2-[{[4′-(1,1-difluoropropyl)biphenyl-4-yl]carbonyl}(methyl)amino]-N-hydroxy-N′-methylpropanediamide]: the IC50 was under 10 nM. Take `O=C(NC(C(=O)NO)C(=O)NCc1ccco1)c1ccc(-c2ccc(OCCO)cc2)cc1` (stereo not shown) [Compound 12, N-(furan-2-ylmethyl)-N′-hydroxy-2-({[4′-(2-hydroxyethoxy)biphenyl-4-yl]carbonyl}amino)propanediamide]: the IC50 is under 10 nM.

On to `CNC(=O)C(C(=O)NO)N(C)C(=O)c1ccc(OC2C=CCCC2)cc1` (stereo not shown) [Compound 444, 2-[{[4-(cyclohex-2-en-1-yloxy)phenyl]carbonyl}(methyl)amino]-N-hydroxy-N′-methylpropanediamide], for which the IC50 was in the range of 10 to 100 nM. Consider `CNC(=O)C(C(=O)NO)N(C)C(=O)c1ccc(-c2ccc(NC)cc2)c(NC)c1` (stereo not shown) [Compound 101, 2-[{[2,4′-bis(methylamino)biphenyl-4-yl]carbonyl}(methyl)amino]-N-hydroxy-N′-methylpropanediamide], for which the IC50 was over 100 nM. `CNC(=O)C(C(=O)NO)N(C)C(=O)c1ccc(-c2ccc(CN3CCOCC3)cc2)cc1` (stereo not shown) [Compound 232, N-hydroxy-N′-methyl-2-(methyl {[4′-(morpholin-4-ylmethyl)biphenyl-4-yl]carbonyl}amino)propanediamide]: the IC50 was 10 to 100 nM. Turning to `CCCNC(=O)C(NC(=O)c1ccc(-c2ccc(OCCO)cc2)cc1)C(=O)NO` (stereo not shown) [Compound 142, N-hydroxy-2-({[4′-(2-hydroxyethoxy)biphenyl-4-yl]carbonyl}amino)-N′-propylpropanediamide], the IC50 lay within 10 to 100 nM.

`CNC(=O)C(C(=O)NO)N(C)C(=O)c1ccc(-c2ccc(OCC(C)(C)O)cc2)cc1` (stereo not shown) [Compound 280, N-hydroxy-2-[{[4′-(2-hydroxy-2-methylpropoxy)biphenyl-4-yl]carbonyl}(methyl)amino]-N′-methylpropanediamide]: the IC50 was under 10 nM. For `CNC(=O)C(C)(C(=O)NO)N(C)C(=O)c1ccc(C#Cc2ccc(CN3CCCOCC3)cc2)cc1` (stereo not shown) [Compound 346, N-hydroxy-N′,2-dimethyl-2-{methyl[(4-{[4-(1,4-oxazepan-4-ylmethyl)phenyl]ethynyl}phenyl)carbonyl]amino}propanediamide], the IC50 is under 10 nM. As for `CNC(=O)C(C(=O)NO)N(C)C(=O)c1ccc(-c2ccc(OCCCN3CCOCC3)c(F)c2)cc1` (stereo not shown) [Compound 208, 2-[({3′-fluoro-4′-[3-(morpholin-4-yl)propoxy]biphenyl-4-yl}carbonyl)(methyl)amino]-N-hydroxy-N′-methylpropanediamide], the IC50 is under 10 nM. With `CNC(=O)C(C)(C(=O)NO)N(C)C(=O)c1ccc(-c2ccc(OC)cc2)cc1` (stereo not shown) [Compound 348, N-hydroxy-2-{[(4′-methoxybiphenyl-4-yl)carbonyl](methyl)amino}-N′,2-dimethylpropanediamide], the IC50 was under 10 nM.

For `CC(=O)N(C)CCNC(=O)C(NC(=O)c1ccc(-c2ccc(OCCO)cc2)cc1)C(=O)NO` (stereo not shown) [Compound 145, N-{2-[acetyl(methyl)amino]ethyl}-N′-hydroxy-2-({[4′-(2-hydroxyethoxy)biphenyl-4-yl]carbonyl}amino)propanediamide], the IC50 lay within 10 to 100 nM. In the case of `CNC(=O)C(C(=O)NO)N(C)C(=O)c1ccc(-c2ccc(NCC3CC3CNc3ccccc3)cc2)cc1` (stereo not shown) [Compound 103, N-hydroxy-N′-methyl-2-[methyl({4′-[({2-[(phenylamino)methyl]cyclopropyl}methyl)amino]biphenyl-4-yl}carbonyl)amino]propanediamide], the IC50 was under 10 nM. `CNC(=O)C(C(=O)NO)N(C)C(=O)c1ccc(-c2ccc(SCCCN3CCOCC3)cc2)cc1` (stereo not shown) [Compound 286, N-hydroxy-N′-methyl-2-{methyl[(4′-{[3-(morpholin-4-yl)propyl]sulfanyl}biphenyl-4-yl)carbonyl]amino}propanediamide]: the IC50 is under 10 nM. Regarding `CNC(=O)C(C(=O)NO)N(C)C(=O)c1ccc(-c2ccc3c(ccn3CCO)c2)cc1` (stereo not shown) [Compound 31, N-hydroxy-2-[{4-[1-(2-hydroxyethyl)-1H-indol-5-yl]benzoyl}(methyl)amino]-N′-methylpropanediamide], the IC50 was under 10 nM.
